Experimental findings from patent EP4094762A1, “TREATMENT OF NEUROLOGICAL INDICATIONS” (UCL Business Ltd, priority 2021, dated 2022) are described below.

Structures are written as SMILES.

T1 sequence (P47900 whole entry): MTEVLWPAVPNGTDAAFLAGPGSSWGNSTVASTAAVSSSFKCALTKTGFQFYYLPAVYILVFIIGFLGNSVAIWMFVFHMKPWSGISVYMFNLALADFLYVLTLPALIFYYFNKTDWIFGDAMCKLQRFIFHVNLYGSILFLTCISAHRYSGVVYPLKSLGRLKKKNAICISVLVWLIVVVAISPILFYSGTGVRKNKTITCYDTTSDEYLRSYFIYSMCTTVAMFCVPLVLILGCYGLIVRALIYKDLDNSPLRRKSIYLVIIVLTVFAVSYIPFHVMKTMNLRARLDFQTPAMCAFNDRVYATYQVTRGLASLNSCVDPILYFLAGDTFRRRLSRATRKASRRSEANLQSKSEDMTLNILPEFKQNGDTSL

The experiment addresses T1, P2Y1 receptor (Homo sapiens, UniProt P47900).
T1 construct: expressed in transfected cells
Description: Cell based HTRF assay measuring IP1 accumulation; antagonism of the P2Y1 agonist MRS2365. To be noted: rounded to nearest whole number; read-out: IC50 IP1. The method, then:
IC50 values were determined using a cell based assay in stably transfected cells overexpressing the P2Y1 receptor. The assay system is a high throughput […] assay measuring accumulation of the intracellular messenger inositol monophosphate (IP1), generated intracellularly following activation of P2Y1.
P2Y1 overexpressing cells were maintained in T175 flasks. The day before the assay, these cells were split and 20µl cell suspension transferred to each well of white 384-well assay plates at a cell density of 0.5x10^6 cells/mL. Plates were pulse centrifuged, then incubated overnight at 37°C / 5% CO2 prior to assay.
On day of assay, medium was removed from cells and replaced with stimulation buffer. […] Positive control antagonist curves with standard compounds were included on each plate. Plates were incubated with antagonists for 1 hour prior to addition of 5nM of the agonist MRS2365, dispensed using a Bravo liquid handler. Following agonist addition, plates were incubated for 60 minutes prior to assay. Both incubations were carried out at 37°C / 5% CO2.
For the assay, IP1 accumulation was quantified using the IPOne kit according to manufacturer's instructions. In short, a standard curve was prepared for IP1 quantification, and cells lysed using kit lysis buffer. Assay reagents were added to the lysates, and incubated for 1 hour at room temperature without spinning or shaking. Plates were analysed on a BMG Pherastar plate reader, and IP1 signal generated in cells interpolated from the standard curve.
Turning to `Cc1c(Oc2ncccc2NC(=O)Nc2ccc(OC(F)(F)F)cc2)cccc1-c1ccc2ccn(C)c2c1` [S37], the IC50 – broadly, the concentration at which inhibition is half-maximal – came to 778 nM.

As to `CC(C)(C)c1ccccc1Oc1ncccc1NC(=O)NCCc1ccccc1` [S43], the IC50 amounted to 958 nM. The figure for `N#Cc1cccc(-c2cccc(Oc3ncccc3NC(=O)Nc3ccc(OC(F)(F)F)cc3)c2)c1` [S63] is 2510 nM; for `CC(C)(C)c1cccc(Oc2ncccc2NC(=O)Nc2ccc(OC(F)(F)F)cc2)c1` [S20] it is 276 nM. Regarding `Cc1c(Oc2ncccc2NC(=O)Nc2ccc(OC(F)(F)F)cc2)cccc1S(C)(=O)=O` [S75], the IC50 is 6590 nM.

On to `Cc1c(Oc2ncccc2NC(=O)Nc2ccc(OC(F)(F)F)cc2)cccc1N1CC2CC1CO2` (centres unmarked) [S59], for which the IC50 was 2140 nM.

`O=C(Nc1ccc(OC(F)(F)F)cc1)Nc1cccnc1Oc1ccccc1Br` [S41]: the IC50 was 925 nM. `CC(C)(C)c1ccccc1Oc1ncc(-c2ccc(C#N)cc2)cc1NC(=O)Nc1ccc(OC(F)(F)F)cc1` [S58]: the IC50 was 2100 nM. The value for `CC(C)(C)c1ccccc1Oc1ncccc1NC(=O)Nc1nc2ccc(Cl)nc2s1` [S17] was 209 nM. The figure for `N#Cc1ccc(-c2cccc(Oc3ncccc3NC(=O)Nc3ccc(OC(F)(F)F)cc3)c2)cc1` [S71] is 4940 nM; for `Cc1c(Br)cccc1Oc1ncccc1NC(=O)Nc1ccc(OC(F)(F)F)cc1` [S28] it is 513 nM. The value for `Cc1ccccc1Oc1ncc(NC2CCOCC2)cc1NC(=O)Nc1ccc(OC(F)(F)F)cc1` [S84] was 8990 nM; that for `O=C(Nc1ccc(OC(F)(F)F)cc1)Nc1cccnc1Oc1ccccc1N1CCCCC1` [S33] was 632 nM. Regarding `Cc1c(Oc2ncccc2NC(=O)Nc2ccc(OC(F)(F)F)cc2)cccc1-c1ccc(C#N)cc1` [S16], the IC50 was 202 nM. Take `O=C(Nc1ccc(F)cc1F)Nc1cccnc1Oc1ccc(C(F)(F)F)cc1` [S80]: the IC50 was determined as 7940 nM.

`CC(C)c1ccc(C(F)F)cc1Oc1ncccc1NC(=O)Nc1ccc(OC(F)(F)F)cc1` [S15]: the IC50 turned out to be 179 nM.

With `Cc1c(Oc2ncccc2NC(=O)Nc2ccc(OC(F)(F)F)cc2)cccc1-c1cnn(C)c1` [S61], the concentration for half-maximal inhibition (IC50) is 2460 nM.

As to `CC(C)(C)c1ccccc1Oc1ncc(-c2cccc(C#N)c2)cc1NC(=O)Nc1ccc(OC(F)(F)F)cc1` [S56], the IC50 came out at 1960 nM. The value for `Cc1cnc(Oc2ccccc2C(C)(C)C)c(NC(=O)Nc2ccc(OC(F)(F)F)cc2)c1` [S13] was 151 nM; that for `Cc1cnc(Oc2cccc(N3CCCCC3)c2C)c(NC(=O)Nc2ccc(OC(F)(F)F)cc2)c1` [S64] was 2810 nM; that for `O=C(Nc1ccc(OC(F)(F)F)cc1)Nc1cccnc1Oc1cc(O)ccc1Br` [S50] was 1280 nM. The value for `CC(C)(C)c1ccc(O)c(Oc2ncccc2NC(=O)Nc2ccc(OC(F)(F)F)cc2)c1` [S42] was 948 nM; that for `CC(C)c1cccc(C(F)F)c1Oc1ncccc1NC(=O)Nc1ccc(OC(F)(F)F)cc1` [S30] was 574 nM; that for `CC(C)(C)c1ccccc1Oc1ccsc1NC(=O)Nc1ccc(OC(F)(F)F)cc1` [S45] was 1060 nM.

With `Cc1c(Oc2ncccc2NC(=O)Nc2ccc(OC(F)(F)F)cc2)cccc1N1CCOCC1` [S23], the IC50 stood at 332 nM. On to `CC(C)(C)c1ccccc1Oc1ncccc1NC(=O)NCCCc1ccccc1` [S34], for which the IC50 was 640 nM. As for `Cc1ccccc1Oc1ncc(C(F)F)cc1NC(=O)Nc1ccc(OC(F)(F)F)cc1` [S57], the IC50 amounted to 1990 nM. The value for `Cc1cccc(Oc2ncccc2NC(=O)Nc2ccc(OC(F)(F)F)cc2)c1Br` [S24] was 398 nM.

As to `CC(C)(C)c1ccccc1Sc1ncccc1NC(=O)Nc1ccc(OC(F)(F)F)cc1` [S3], the IC50 stood at 57 nM. Turning to `Cc1c(C#N)cccc1Oc1ncccc1NC(=O)Nc1ccc(OC(F)(F)F)cc1` [S44], the IC50 worked out at 1030 nM. The value for `Cc1c(Oc2ncccc2NC(=O)Nc2ccc(OC(F)(F)F)cc2)cccc1N(C)C` [S12] was 151 nM.

On to `C=Cc1cnc(Oc2ccccc2C)c(NC(=O)Nc2ccc(OC(F)(F)F)cc2)c1` [S67], for which the IC50 came to 3350 nM.
